The record followed here is patent US20250163043A1 (TRANSTHERA SCIENCES (NANJING), INC., priority 2021, published 2025).

Structures are written as SMILES. Some results are limits rather than exact numbers.

Experiment [1] concerns MV-4-11 (human myelomonocytic leukemia cells). In words: CCK-8 cell proliferation assay, MV-4-11. The format is cell-based. To be noted: MV4-11, 24 h incubation, 11 concentrations from 5000 nM, 3-fold, read-out: MV-4-11 cell proliferation IC50 (class). As for the experimental part:
(§1) Test samples: the compounds of the present invention, having structures shown above.
MV-4-11 (human myelomonocytic leukemia cells) and NCI-H929 (human myeloma cells).
The compounds were dissolved in DMSO and diluted 3-fold in the 96-well plate to obtain stock solutions with 11 concentration gradients. Each cell was inoculated into a 96-well plate, and the diluted compound stock solution was added to the 96-well plate to obtain a series of 11 concentration gradients of compound solutions with final concentrations of 5000 nM starting and 3-fold gradient decreasing, wherein the final DMSO content was […]. There was a medium containing 1‰ DMSO in the negative control well. The treated cells were incubated at 37° C. with 5% CO2 and 95% humidity, wherein MV-4-11 were incubated for 24 h and NCI-H929 for 72 h. After incubation was completed, each well was added with 10 μL of CCK-8 reagent, incubated for 1-3 h at room temperature and placed in the microplate reader, and the absorbance was read at 450 nm.
(§2) The inhibition rate was calculated according to the following formula: […]
ODcmpd: compound absorbance; ODpositive: average value of the absorbance of positive control without compound; ODvehicle: average value of the absorbance of solvent vehicle control.
(§3) IC50 values were fitted using GraphPad 7.0 based on inhibition rates of compounds at different concentrations.
In general terms: Tetrazolium dyes change colour on reduction, which living cells bring about.

In a further experiment the target is CDK9/CycT1 (Homo sapiens, UniProt P50750). Nature of the experiment: ADP-Glo kinase assay on CDK enzymatic activity, CDK9/CycT1. The class given is biochemical. To be noted: 10 concentrations from 10 μM, 4-fold, 60 min room temperature. The method in brief: (§4)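 Ten-point, 4-fold dilution series from 10 μM final was preincubated 10 min with kinase, then 60 min at room temperature with CDKtide substrate and ATP. ADP-Glo luminescence gave inhibition relative to 1 μM AZD4573 and 0.5% DMSO controls; IC50 from curve fitting.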

The target in the next experiment is CDK2/CycA2 (Homo sapiens, UniProt P24941). Nature of the experiment: ADP-Glo kinase assay on CDK enzymatic activity, CDK2/CycA2. The format is biochemical. To be noted: 10 concentrations from 10 μM, 4-fold, 60 min room temperature. The essentials:
as §4
On the technique in general: ADP-Glo turns the ADP formed in a reaction into a luminescent signal.

Another experiment addresses CDK1/CycE1 (Homo sapiens, UniProt P06493). Nature of the experiment: ADP-Glo kinase assay on CDK enzymatic activity, CDK1/CycE1. The format is biochemical. To be noted: ADP-Glo; 10 concentrations from 10 μM, 4-fold; 60 min room temperature; read-out: CDK1/CycE1/nM (IC50). The method in brief:
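Compounds in 10-point 4-fold dilutions from 10 μM final, preincubated 10 min with kinase, then substrate/ATP added; 60 min reaction at room temperature. ADP-Glo luminescence read.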

The next experiment concerns the target CDK3/CycE1 (Homo sapiens, UniProt Q00526). Nature of the experiment: ADP-Glo kinase assay on CDK enzymatic activity, CDK3/CycE1. The class given is biochemical. The note with it: 10 concentrations from 10 μM, 4-fold, 60 min room temperature.
Text: as §1
(§5) ADP-Glo Kinase Assay (ADP-Glo kinase kit), DMSO (dimethyl sulfoxide), CDK9/CycT1 (cyclin-dependent kinase 9/cyclin T1), CDK tide (cyclin-dependent kinase substrate peptide fragments), CDK1/CycE1 (cyclin-dependent kinase 1/cyclin E1), CDK2/CycA2 (cyclin-dependent kinase 2/cyclin A2), CDK3/CycE1 (cyclin-dependent kinase 3/cyclin E1), CDK4/CycD3 (cyclin-dependent kinase 4/cyclin D3), CDK5/p25NCK (cyclin-dependent kinase 5/p25), and AZD 4573.
(§6) A 384-well white plate, a 96-well plate, a microplate oscillator, a centrifuge, and a microplate reader.
(§7) The compounds were dissolved in DMSO and diluted 4-fold in the 96-well plate to obtain stock solutions with 10 concentration gradients, and added into a 384-well plate system to obtain a series of 10 concentration gradients of compound solutions with final concentrations of 10 μM starting and 4-fold gradient decreasing. 1 μM AZD4573 was used as compound positive control (PC) and 0.5% DMSO as solvent vehicle control (VC), ten duplicated wells each for PC and VC.
(§8) 1 μL of compound solution and 2 μL of 2× kinase solution were transferred to each well, and the plate was centrifuged at 1000 g for 30 s and left at room temperature for 10 min. A mixture of 2× substrate and ATP was prepared in 1× kinase buffer. The reaction was started after adding 2 μL of substrate and ATP into the plate. The plate was centrifuged at 1000 g for 30 s. The assay plate was closed and left at room temperature for 60 min. The reaction system was added with 4 μL of ADP Glo reagent, centrifuged at 1000 rpm for 1 min, and incubated at room temperature for 40 min. The reaction system was added with 8 μL of kinase assay reagent, centrifuged at 1000 rpm for 1 min and incubated at room temperature for 40 min. The […] was read on Biotek.
as §2
(§9) Lumcmpd: compound fluorescence reading; Lumpositive: average value of the fluorescence reading of positive compound control; Lumvehicle: average value of the fluorescence reading of solvent vehicle control.
as §3

In another experiment the target is CDK5/p25NCK (Homo sapiens, UniProt Q00535). In words: ADP-Glo kinase assay on CDK enzymatic activity, CDK5/p25NCK. The format is biochemical. To be noted: 10 concentrations from 10 μM, 4-fold, 60 min room temperature.
Text: as §1, §5, §6, §7, §8, §2, §9, §3

Chain of CDK1/CycE1 (P06493 whole entry, species assumed): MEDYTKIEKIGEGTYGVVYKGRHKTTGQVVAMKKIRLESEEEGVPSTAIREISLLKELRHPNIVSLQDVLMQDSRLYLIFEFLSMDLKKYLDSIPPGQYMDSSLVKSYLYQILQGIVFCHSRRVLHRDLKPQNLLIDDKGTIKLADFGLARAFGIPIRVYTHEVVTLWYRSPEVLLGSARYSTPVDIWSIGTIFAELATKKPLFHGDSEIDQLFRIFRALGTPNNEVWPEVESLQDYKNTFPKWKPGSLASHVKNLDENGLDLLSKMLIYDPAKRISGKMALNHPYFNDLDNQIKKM
Chain of CDK1/CycE1 (P24864 whole entry partner, species assumed): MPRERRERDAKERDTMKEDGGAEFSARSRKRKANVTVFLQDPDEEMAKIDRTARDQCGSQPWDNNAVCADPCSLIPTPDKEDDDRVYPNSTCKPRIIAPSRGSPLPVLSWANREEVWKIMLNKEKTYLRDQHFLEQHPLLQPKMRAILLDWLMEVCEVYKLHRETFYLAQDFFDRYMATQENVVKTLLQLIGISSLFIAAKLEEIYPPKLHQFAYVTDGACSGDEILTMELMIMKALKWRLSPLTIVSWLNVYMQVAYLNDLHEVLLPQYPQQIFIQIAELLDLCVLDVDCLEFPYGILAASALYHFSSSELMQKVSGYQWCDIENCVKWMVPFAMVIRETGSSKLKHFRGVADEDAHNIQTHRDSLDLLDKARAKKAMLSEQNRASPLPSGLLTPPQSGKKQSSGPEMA
Chain of CDK3/CycE1 (Q00526 whole entry, species assumed): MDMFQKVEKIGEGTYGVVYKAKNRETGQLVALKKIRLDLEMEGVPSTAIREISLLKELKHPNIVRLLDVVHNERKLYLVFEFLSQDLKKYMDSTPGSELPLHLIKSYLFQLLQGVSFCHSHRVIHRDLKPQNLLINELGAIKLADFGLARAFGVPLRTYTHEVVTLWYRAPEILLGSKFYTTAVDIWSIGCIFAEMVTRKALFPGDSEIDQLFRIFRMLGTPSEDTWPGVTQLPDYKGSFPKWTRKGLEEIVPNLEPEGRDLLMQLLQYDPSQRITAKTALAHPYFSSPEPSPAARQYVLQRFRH
Chain of CDK3/CycE1 (P24864 whole entry partner, species assumed): as the sequence (P24864 whole entry partner, species assumed) above
Chain of CDK5/p25NCK (Q00535 whole entry, species assumed): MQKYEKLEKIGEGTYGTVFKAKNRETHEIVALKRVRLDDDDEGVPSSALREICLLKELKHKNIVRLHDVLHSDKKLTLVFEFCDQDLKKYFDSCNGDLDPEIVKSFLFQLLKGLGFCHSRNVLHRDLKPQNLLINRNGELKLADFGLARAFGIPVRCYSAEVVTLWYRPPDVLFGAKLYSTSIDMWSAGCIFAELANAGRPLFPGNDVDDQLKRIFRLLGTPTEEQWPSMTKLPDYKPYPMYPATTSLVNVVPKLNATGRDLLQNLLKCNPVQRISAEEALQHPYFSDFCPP
Chain of CDK5/p25NCK (Q15078 99-307 partner limits assumed, species assumed): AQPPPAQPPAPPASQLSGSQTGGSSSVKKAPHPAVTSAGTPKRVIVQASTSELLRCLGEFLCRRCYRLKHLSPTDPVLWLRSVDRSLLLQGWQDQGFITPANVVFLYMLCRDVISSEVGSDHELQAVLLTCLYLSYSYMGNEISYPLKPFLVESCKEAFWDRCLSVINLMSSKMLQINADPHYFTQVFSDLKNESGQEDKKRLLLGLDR
Chain of CDK9/CycT1 (P50750 whole entry): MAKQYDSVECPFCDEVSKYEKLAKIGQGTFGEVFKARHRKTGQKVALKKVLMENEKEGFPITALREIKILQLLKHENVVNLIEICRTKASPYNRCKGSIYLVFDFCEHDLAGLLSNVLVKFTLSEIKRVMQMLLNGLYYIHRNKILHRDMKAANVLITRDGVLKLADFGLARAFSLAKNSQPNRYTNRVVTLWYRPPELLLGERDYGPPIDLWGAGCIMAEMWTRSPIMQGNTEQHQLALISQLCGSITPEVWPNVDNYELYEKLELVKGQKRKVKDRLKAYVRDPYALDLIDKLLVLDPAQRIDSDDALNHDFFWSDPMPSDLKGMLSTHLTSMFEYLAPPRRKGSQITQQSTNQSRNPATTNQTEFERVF
Chain of CDK9/CycT1 (O60563 whole entry partner): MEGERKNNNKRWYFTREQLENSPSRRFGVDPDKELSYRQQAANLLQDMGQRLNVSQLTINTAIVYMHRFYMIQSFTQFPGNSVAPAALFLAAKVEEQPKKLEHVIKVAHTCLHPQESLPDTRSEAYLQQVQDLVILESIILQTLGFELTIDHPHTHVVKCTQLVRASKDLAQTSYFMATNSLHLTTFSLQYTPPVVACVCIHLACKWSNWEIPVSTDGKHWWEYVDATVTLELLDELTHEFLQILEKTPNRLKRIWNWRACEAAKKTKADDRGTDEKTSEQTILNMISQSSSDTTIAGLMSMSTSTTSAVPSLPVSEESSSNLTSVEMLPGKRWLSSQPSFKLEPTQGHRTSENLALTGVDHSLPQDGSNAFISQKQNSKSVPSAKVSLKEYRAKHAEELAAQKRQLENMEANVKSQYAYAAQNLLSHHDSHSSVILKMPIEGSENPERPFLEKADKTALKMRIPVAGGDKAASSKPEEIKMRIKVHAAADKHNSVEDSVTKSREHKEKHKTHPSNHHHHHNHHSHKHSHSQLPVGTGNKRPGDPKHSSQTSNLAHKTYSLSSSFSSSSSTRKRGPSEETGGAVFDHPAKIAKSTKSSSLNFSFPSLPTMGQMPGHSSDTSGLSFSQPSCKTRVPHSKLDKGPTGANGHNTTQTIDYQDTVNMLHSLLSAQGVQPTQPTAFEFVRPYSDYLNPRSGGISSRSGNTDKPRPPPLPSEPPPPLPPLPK

Turning to `CC(=O)N[C@@H]1CCC[C@H](C(=O)Nc2ncc3cc(C#N)nc(NC(C)C)c3n2)C1` [Compound 3, (1S,3R)-3-acetamido-N-(6-cyano-8-(isopropylamino)pyrido[3,4-d]pyrimidin-2-yl)cyclohexane-1-carboxamide], the IC50 in experiment [1] was more than 1000 nM.
For `CC(=O)N[C@@H]1CCC[C@H](C(=O)Nc2ncc3cc(S(C)(=O)=O)nc(NC(C)C)c3n2)C1` [Compound 5, (1S,3R)-3-acetamido-N-(8-(isopropylamino)-6-(methylsulfonyl)pyrido[3,4-d]pyrimidin-2-yl)cyclohexane-1-carboxamide], in experiment [1], the IC50 is more than 1000 nM.
Still for that read-out and setting: the same measure for `CC(=O)N1CCC[C@H](C(=O)Nc2ncc3cc(C#N)nc(NC(C)C)c3n2)C1` [Compound 6, (S)-1-acetyl-N-(6-cyano-8-(isopropylamino)pyrido[3,4-d]pyrimidin-2-yl)piperidine-3-carboxamide]: more than 1000 nM; for `CC(=O)N[C@@H]1CCC[C@H](C(=O)Nc2ncc3cc(C)nc(NC(C)C)c3n2)C1` [Compound 8, (1S,3R)-3-acetamido-N-(8-(isopropylamino)-6-methylpyrido[3,4-d]pyrimidin-2-yl)cyclohexane-1-carboxamide]: more than 1000 nM.
On the same count and under the same terms, the same measure for `CCc1cc2cnc(NC(=O)[C@H]3CCC[C@@H](NC(C)=O)C3)nc2c(NC(C)C)n1` [Compound 9, (1S,3R)-3-acetamido-N-(6-ethyl-8-(isopropylamino)pyrido[3,4-d]pyrimidin-2-yl)cyclohexane-1-carboxamide]: more than 1000 nM.
`CC(C)(C)Oc1nc(C#N)cc2cnc(N[C@H]3CCCNC3)cc12` [Compound 152, (S)-1-(tert-butoxy)-7-(piperidin-3-ylamino)-2,6-naphthyridine-3-carbonitrile]: the IC50 at CDK9/CycT1 turned out to be 2 nM; against CDK2/CycA2, 267 nM; at CDK1/CycE1, 110 nM; against CDK3/CycE1, 124 nM; at CDK5/p25NCK it was 1000 nM.
For `CC(C)Oc1nc(C#N)cc2cnc(N[C@H]3CCCNC3)cc12` [Compound 153, (S)-1-(isopropoxy)-7-(piperidin-3-ylamino)-2,6-naphthyridine-3-carbonitrile], in that order: 2 nM, 562 nM, 133 nM, 67 nM and 706 nM.
For `N#Cc1cc2cnc(N[C@H]3CCCNC3)cc2c(O[C@@H]2CCOC2)n1` [Compound 154, 7-(((S)-piperidin-3-yl)amino)-1-(((R)-tetrahydrofuran-3-yl)oxy)-2,6-naphthyridine-3-carbonitrile], in that order: 5 nM, 2320 nM, 1020 nM, 371 nM and 3840 nM.
For `N#Cc1cc2cnc(N[C@H]3CCCNC3)cc2c(NC2CC2)n1` [Compound 175, (S)-1-(cyclopropylamino)-7-(piperidin-3-ylamino)-2,6-naphthyridine-3-carbonitrile], in that order: 3 nM, 489 nM, 234 nM, 1480 nM and 435 nM.
Consider `CCNc1nc(C#N)cc2cnc(N[C@H]3C[C@H](N)C3)cc12` [Compound 184, 7-(((trans)-3-aminocyclobutyl)amino)-1-(ethylamino)-2,6-naphthyridine-3-carbonitrile], for which the IC50 was determined as 1 nM at CDK9/CycT1; 125 nM at CDK2/CycA2; 163 nM on CDK1/CycE1; 990 nM on CDK3/CycE1; 96 nM against CDK5/p25NCK.
The matching figures for `CCNc1nc(C#N)cc2cnc(N[C@H]3CCCNC3)cc12` [Compound 186, (S)-1-(ethylamino)-7-(piperidin-3-ylamino)-2,6-naphthyridine-3-carbonitrile]: 3 nM, 352 nM, 336 nM, 915 nM and 176 nM.
For `CCOc1nc(C(F)F)cc2cnc(N[C@H]3C[C@H](N)C3)cc12` [Compound 200, (trans)-N^1-(7-(difluoromethyl)-5-ethoxy-2,6-naphthyridin-3-yl)cyclobutane-1,3-diamine], in that order: 2 nM, 244 nM, 149 nM, 1100 nM and 263 nM.
The matching figures for `FC(F)c1cc2cnc(N[C@H]3CCCNC3)cc2c(N[C@@H]2CCOC2)n1` [Compound 201, 3-(difluoromethyl)-N7—((S)-piperidin-3-yl)-N^1—((R)-tetrahydrofuran-3-yl)-2,6-naphthyridine-1,7-diamine]: 2 nM, 83 nM, 215 nM, 189 nM and 53 nM.
For the molecule `FC(F)c1cc2cnc(N[C@H]3CCCNC3)cc2c(O[C@@H]2CCOC2)n1` [Compound 202, 7-(difluoromethyl)-N—((S)-piperidin-3-yl)-5-(((R)-tetrahydrofuran-3-yl)oxy)-2,6-naphthyridin-3-amine], the IC50 on CDK9/CycT1 was determined as 4 nM; against CDK2/CycA2 it was 337 nM; at CDK1/CycE1 it was 521 nM; against CDK3/CycE1, 398 nM; at CDK5/p25NCK, 168 nM.
For `CC1(Oc2nc(C#N)cc3cnc(N[C@H]4CCCNC4)cc23)CC1` [Compound 204, (S)-1-(1-methylcyclopropoxy)-7-(piperidin-3-amino)-2,6-naphthyridine-3-carbonitrile], the IC50 came to 2 nM against CDK9/CycT1; 1010 nM on CDK2/CycA2; 903 nM at CDK1/CycE1; 1410 nM on CDK3/CycE1; 523 nM against CDK5/p25NCK.
The matching figures for `CC(C)(C)Nc1nc(C(F)F)cc2cnc(N[C@H]3CCCNC3)nc12` [Compound C1]: 2 nM, 21 nM, 7 nM, 7 nM and 17 nM.
The matching figures for `CC(C)(C)Nc1nc(C(F)F)cc2cnc(NC3CCNCC3)nc12` [Compound C2, N^8-(tert-butyl)-6-(difluoromethyl)-N^2-(piperidin-4-yl)pyrido[3,4-d]pyrimidine-2,8-diamine]: 4 nM, 48 nM, 48 nM, 53 nM and 465 nM.
The matching figures for `CC(C)Nc1nc(C#N)cc2cnc(N[C@@H]3CN4CCC3CC4)nc12` [Compound C45, (S)-8-(isopropylamino)-2-(quinuclidin-3-ylamino)pyrido[3,4-d]pyrimidine-6-carbonitrile]: 6 nM, 1310 nM, 467 nM, 340 nM and 7980 nM.
In the case of `CC(C)Nc1nc(C(F)(F)F)cc2cnc(N[C@H]3CCCNC3)nc12` [Compound C46, (S)—N^8-isopropyl-N^2-(piperidin-3-yl)-6-(trifluoromethyl)pyrido[3,4-d]pyrimidine-2,8-diamine], the IC50 on CDK9/CycT1 turned out to be 2 nM; on CDK2/CycA2, 33 nM; at CDK1/CycE1 it was 19 nM; at CDK3/CycE1, 8 nM; against CDK5/p25NCK, 60 nM.
